# Assay results as given in patent US8377851B2, “Method of altering the alkaloid composition in poppy plants” (priority 2004, dated 2013).
# Where two headings read alike, the source gives them in different places.
# Assays:
# morphine crop [1] = system: morphine crop; set-up: species or system Papaver somniferum; conditions: in vivo
# morphine crop [2] = assay: Example 29 field trial: methyl jasmonate, capsule/seed ratio and alkaloid assay
# morphine crop [3] = system: morphine crop; set-up: species or system Papaver somniferum; conditions: in vivo; remark: listed apart in the source
compound,measurement,setting,value
O=C(O)CN(CCN(CC(=O)O)CC(=O)O)CC(=O)O [EDTA],CAPSULE/SEED RATIO,morphine crop [1],0.590 c
same,CODEINE kg/ha,morphine crop [1],0.790 b kg/ha
same,MORPHINE kg/ha,morphine crop [1],32.97 a kg/ha
same,ORIPAVINE kg/ha,morphine crop [1],0.618 c kg/ha
same,SEED kg/ha,morphine crop [1],1960 a kg/ha
same,STRAW CODEINE %,morphine crop [1],0.047 b %
same,STRAW MORPHINE %,morphine crop [1],1.98 a %
same,STRAW O'PAVINE %,morphine crop [1],0.036 b %
same,STRAW THEBAINE %,morphine crop [1],0.139 c %
same,STRAW kg/ha,morphine crop [1],1668 b kg/ha
same,THEBAINE kg/ha,morphine crop [1],2.350 c kg/ha
same,YIELD t/ha,morphine crop [1],3.63 ab t/ha
"CC/C=C\CC1C(=O)CCC1CC(=O)OC (centres unmarked) [METHYL JASMONATE, methyl jasmonate]",CAPSULE/SEED RATIO,morphine crop [2]; METHYL JAS .15 L/ha at EF,0.575 a
same,STRAW CODEINE,morphine crop [2]; METHYL JAS .15 L/ha at EF,0.064 b %
same,STRAW MORPHINE,morphine crop [2]; METHYL JAS .15 L/ha at EF,2.04 a %
same,STRAW O'PAVINE,morphine crop [2]; METHYL JAS .15 L/ha at EF,0.009 b %
same,STRAW THEBAINE,morphine crop [2]; METHYL JAS .15 L/ha at EF,0.042 b %
same,CAPSULE/SEED RATIO,morphine crop [2]; METHYL JAS .15 L/ha at GCAPS,0.577 a
same,STRAW CODEINE,morphine crop [2]; METHYL JAS .15 L/ha at GCAPS,0.044 c %
same,STRAW MORPHINE,morphine crop [2]; METHYL JAS .15 L/ha at GCAPS,2.01 a %
same,STRAW O'PAVINE,morphine crop [2]; METHYL JAS .15 L/ha at GCAPS,0.005 c %
same,STRAW THEBAINE,morphine crop [2]; METHYL JAS .15 L/ha at GCAPS,0.033 c %
same,CAPSULE/SEED RATIO,morphine crop [2]; METHYL JAS .3 L/ha at EF,0.581 a
same,STRAW CODEINE,morphine crop [2]; METHYL JAS .3 L/ha at EF,0.075 a %
same,STRAW MORPHINE,morphine crop [2]; METHYL JAS .3 L/ha at EF,2.09 a %
same,STRAW O'PAVINE,morphine crop [2]; METHYL JAS .3 L/ha at EF,0.011 a %
same,STRAW THEBAINE,morphine crop [2]; METHYL JAS .3 L/ha at EF,0.051 a %
same,CAPSULE/SEED RATIO,morphine crop [2]; METHYL JAS .3 L/ha at GCAPS,0.577 a
same,STRAW CODEINE,morphine crop [2]; METHYL JAS .3 L/ha at GCAPS,0.042 c %
same,STRAW MORPHINE,morphine crop [2]; METHYL JAS .3 L/ha at GCAPS,2.04 a %
same,STRAW O'PAVINE,morphine crop [2]; METHYL JAS .3 L/ha at GCAPS,0.004 c %
same,STRAW THEBAINE,morphine crop [2]; METHYL JAS .3 L/ha at GCAPS,0.029 c %
same,CAPSULE/SEED RATIO,morphine crop [3],0.685 c
same,CODEINE kg/ha,morphine crop [3],1.104 a kg/ha
same,MORPHINE kg/ha,morphine crop [3],19.99 b kg/ha
same,ORIPAVINE kg/ha,morphine crop [3],7.853 c kg/ha
same,SEED kg/ha,morphine crop [3],1886 bc kg/ha
same,STRAW CODEINE %,morphine crop [3],0.059 a %
same,STRAW MORPHINE %,morphine crop [3],1.07 b %
same,STRAW O'PAVINE %,morphine crop [3],0.422 b %
same,STRAW THEBAINE %,morphine crop [3],1.028 c %
same,STRAW kg/ha,morphine crop [3],1863 b kg/ha
same,THEBAINE kg/ha,morphine crop [3],19.124 c kg/ha
same,YIELD kg/ha,morphine crop [3],3.75 a kg/ha
